Patent US20070128217A1 (priority 2003, published 2007)

Key:
[1] = test system: antibodies in sera from SARS patients (sera 1a, 1b, 2, 6, 37, 62, London, SARS-yellow, SARS-green); format: binding, human; parameters: Binding of serum 6 to linear peptides of protein X1 of SARS-CoV Urbani / Binding of serum 37 to linear peptides of protein X1 of SARS-CoV Urbani / Binding of serum 6 to looped/cyclic peptide (PEPSCAN-ELISA) / Binding of serum 37 to looped/cyclic peptide (PEPSCAN-ELISA) / Binding of serum 37 to looped/cyclic peptides of protein X1 of SARS-CoV Urbani / Binding of serum 6 to linear peptides of protein X2 / Binding of serum 37 to linear peptides of protein X2 / Binding of serum 37 to looped/cyclic peptides of protein X2 of SARS-CoV Urbani / Binding of serum 6 to linear peptides of protein M of SARS-CoV Urbani / Binding of serum 37 to linear peptides of protein M of SARS-CoV Urbani / Binding of serum 6 to looped/cyclic peptides of protein M of SARS-CoV Urbani / Binding of serum 37 to looped/cyclic peptides of protein M of SARS-CoV Urbani / Binding of serum 6 to linear peptides of protein X3 of SARS-CoV Urbani / Binding of serum 37 to linear peptides of protein X3 of SARS-CoV Urbani / Binding of serum 37 to looped/cyclic peptides of protein X3 of SARS-CoV Urbani / Binding of serum 6 to linear peptides of protein X4 of SARS-CoV Urbani / Binding of serum 37 to linear peptides of protein X4 of SARS-CoV Urbani / Binding of serum 37 to looped/cyclic peptides of protein X4 of SARS-CoV Urbani / Binding of serum 6 to linear peptides of protein X5 of SARS-CoV Urbani / Binding of serum 37 to linear peptides of protein X5 of SARS-CoV Urbani / Binding of serum 37 to looped/cyclic peptides of protein X5 of SARS-CoV Urbani / Binding of serum 6 to linear peptides of protein N of SARS-CoV Urbani / Binding of serum 37 to linear peptides of protein N of SARS-CoV Urbani / Binding of serum 6 to linear peptide (PEPSCAN-ELISA) / Binding of serum 1a to looped/cyclic peptides of protein N of SARS-CoV Urbani / Binding of serum 1b to looped/cyclic peptides of protein N of SARS-CoV Urbani / Binding of serum 2 to looped/cyclic peptides of protein N of SARS-CoV Urbani / Binding of serum 6 to looped/cyclic peptides of protein N of SARS-CoV Urbani / Binding of serum 37 to looped/cyclic peptides of protein N of SARS-CoV Urbani / Binding of serum 62 to looped/cyclic peptides of protein N of SARS-CoV Urbani / Binding of serum London to looped/cyclic peptides of protein N of SARS-CoV Urbani / Binding of serum SARS-green to looped/cyclic peptides of protein N of SARS-CoV Urbani: unit not given here
[2] = test system: control sera (pooled serum of ten healthy LUMC hospital workers; commercial negative donor pooled serum from the Dutch bloodbank); format: binding, human; parameters: Binding of Control serum LUMC to linear peptides / Binding of Control serum Blood-bank to linear peptides / Binding of Control serum LUMC to looped peptides / Binding of Control Serum Blood-Bank to Looped peptides / Binding of Control serum LUMC to linear peptides of the protein M of SARS-CoV Urbani / Binding of Control serum Blood-bank to linear peptides of the protein M of SARS-CoV Urbani / Binding of Control serum LUMC to looped peptides of the protein M of SARS-CoV Urbani / Binding of Control Serum Blood-Bank to Looped peptides of the protein M of SARS-CoV Urbani: unit not given here
[3] = test system: rabbit serum obtained by immunizing a rabbit with the SARS-CoV strain Frankfurt 1; format: binding; parameters: Binding of a rabbit serum to linear peptides / Binding of a rabbit serum to looped peptides / Rabbit serum linear peptides / Rabbit serum looped peptides / Binding of a rabbit serum to linear peptides of protein N of SARS-CoV Urbani (Rabbit serum linear peptides) / Binding of a rabbit serum to looped/cyclic peptides of protein N of SARS-CoV Urbani (Rabbit serum looped peptides): unit not given here
[4] = test system: recombinant human anti-SARS-CoV antibody 03-018; format: binding; parameters: Binding of antibody 03-018 to linear peptides of the N protein of SARS-CoV Urbani / Binding of antibody 03-018 to looped/cyclic peptides of the N protein of SARS-CoV Urbani: unit not given here

Sequence	Binding of serum 1a to linear peptides of protein N of SARS-CoV Urbani [1]	Binding of serum 1a to looped/cyclic peptides of protein N of SARS-CoV Urbani [1]	Binding of serum 1b to linear peptides of protein N of SARS-CoV Urbani [1]	Binding of serum 1b to looped/cyclic peptides of protein N of SARS-CoV Urbani [1]	Binding of serum 2 to linear peptides of protein N of SARS-CoV Urbani [1]	Binding of serum 2 to looped/cyclic peptides of protein N of SARS-CoV Urbani [1]	Binding of serum 6 to linear peptides of protein N of SARS-CoV Urbani [1]	Binding of serum 6 to looped/cyclic peptides of protein N of SARS-CoV Urbani [1]	Binding of serum 37 to linear peptides of protein N of SARS-CoV Urbani [1]	Binding of serum 37 to looped/cyclic peptides of protein N of SARS-CoV Urbani [1]	Binding of serum 62 to linear peptides of protein N of SARS-CoV Urbani [1]	Binding of serum 62 to looped/cyclic peptides of protein N of SARS-CoV Urbani [1]	Binding of serum London to linear peptides of protein N of SARS-CoV Urbani [1]	Binding of serum London to looped/cyclic peptides of protein N of SARS-CoV Urbani [1]	Binding of serum SARS-green to linear peptides of protein N of SARS-CoV Urbani [1]	Binding of serum SARS-green to looped/cyclic peptides of protein N of SARS-CoV Urbani [1]	Binding of serum SARS-yellow to linear peptides of protein N of SARS-CoV Urbani [1]	Binding of serum SARS-yellow to looped/cyclic peptides of protein N of SARS-CoV Urbani [1]	Binding of a rabbit serum to linear peptides of protein N of SARS-CoV Urbani (Rabbit serum linear peptides) [3]	Binding of a rabbit serum to looped/cyclic peptides of protein N of SARS-CoV Urbani (Rabbit serum looped peptides) [3]	further results
EAQPLPQRQKKQPTV	0.2	0.2	0.2	0.1	0.3	0.2	0.3	0.2	0.7	0.3	0.7	0.2	1.2	0.3	0.4	0.2	1.3	0.5	0.1	0.0	Control Serum Blood-Bank Looped peptides [2]: 0.4; Control serum Blood-bank linear peptides [2]: 0.6; Control serum LUMC linear peptides [2]: 0.7; Control serum LUMC looped peptides [2]: 0.4; Binding of antibody 03-018 to linear peptides of the N protein of SARS-CoV Urbani [4]: 0.1; Binding of antibody 03-018 to looped/cyclic peptides of the N protein of SARS-CoV Urbani [4]: 0.2
EGALNTPKDHIGTRN	0.2	0.3	0.1	0.2	0.2	0.5	0.2	0.3	0.6	0.6	0.6	0.3	0.6	0.5	0.1	0.4	0.5	0.2	0.1	0.0	Binding of Control Serum Blood-Bank to Looped peptides [2]: 0.7; Binding of Control serum Blood-bank to linear peptides [2]: 0.7; Binding of Control serum LUMC to linear peptides [2]: 0.6; Binding of Control serum LUMC to looped peptides [2]: 0.5; Binding of antibody 03-018 to linear peptides of the N protein of SARS-CoV Urbani [4]: 0.1; Binding of antibody 03-018 to looped/cyclic peptides of the N protein of SARS-CoV Urbani [4]: 0.3
EGIVWVATEGALNTP	0.3	0.3	0.2	0.2	0.3	0.4	0.2	0.2	0.8	0.7	0.7	0.6	0.5	0.3	0.4	0.4	0.6	0.6	0.1	0.4	Binding of Control Serum Blood-Bank to Looped peptides [2]: 0.6; Binding of Control serum Blood-bank to linear peptides [2]: 0.8; Binding of Control serum LUMC to linear peptides [2]: 0.8; Binding of Control serum LUMC to looped peptides [2]: 0.6; Binding of antibody 03-018 to linear peptides of the N protein of SARS-CoV Urbani [4]: 0.1; Binding of antibody 03-018 to looped/cyclic peptides of the N protein of SARS-CoV Urbani [4]: 0.2
